Assay results reported in patent publication US20080193550A1, “Cla-Enriched Milkfat and Uses Thereof” (FONTERRA CORPORATE RESEARCH AND DEVELOPMENT LIMITED, priority 2004, published 2008).

How the values were obtained:
OVA-specific IgG1 = OVA-specific IgG1 in serum by ELISA; type: in vivo, C57BL/6 mice; conditions: Table 10; 0.07% (w/w) in diet; OVA challenged mice
Description: (§1) Body weights were determined, and blood samples collected via the tail vein, prior to assignment of mice to particular diets. After two weeks on an assigned diet mice were immunized with two intraperitoneal (i.p.) injections of 20 μg of OVA (chicken egg albumin grade V; Sigma Chemical Co., St Louis, Mo.) complexed with 2 mg of Imject Alum (Al(OH)3/Mg(OH)2; Pierce Rockford Ill.) in a total volume of 100 μl of PBS on days 0 and 14. Two weeks after the 2nd injection mice were anaesthetized by i.p. injection of a mixture of ketamine and xylazine (Phoenix, Auckland, New Zealand), and challenged intranasally with 100 μg of OVA in 50 μl of PBS. Undiseased control mice were immunized and challenged with PBS using a similar regime. Body weights were determined, and blood, bronchoalveolar lavage (BAL) fluid, and lung tissue samples were collected 6 days after the intranasal challenge. Blood was collected by cardiac puncture after deeply anaesthetizing mice by i.p. injection of a mixture of ketamine and xylazine. Serum was separated from blood samples, and stored at −80° C.
(§2) OVA-specific IgG1 in serum samples was measured by standard ELISA employing 96 well microtitre plates (Nunc Maxisorp). Plates were coated with 100 μl of 0.1 M carbonate buffer, pH 9.5, containing 10 μg/ml of OVA (Sigma) overnight at 4° C. After 3 washes with PBS-T (PBS with 0.05% Tween-20) plates were blocked with 200 μl of 3% BSA in PBS, pH 7.2, at room temperature for 90 min. One hundred microlitres of each serum sample (diluted 1:40) was added in triplicate to the wells, and incubated for 2 h at 37° C. Wells were washed four times with PBS-T and 100 μl of goat anti-mouse IgG1-HRP conjugated antibody (Bethyl Laboratories, USA) was added at 1:50,000 dilution. Plates were incubated for 1 h at 37° C., washed 5 times with PBS-T, and 100 μl of peroxidase enzyme substrate o-phenylene diamine (OPD, Sigma Chemical Co, St Louis, Mo.) was added to each well. The colour reaction was stopped after ˜20 min by addition of 50 μl of 4 M H2SO4 to each well. Absorbance was read at 490 nm in a BioRad microplate ELISA reader. Positive and negative sera were used as controls.

OVA challenged mice [1] = test: Inflammatory cell infiltration into the lung: total and differential BAL cell counts after OVA challenge; type: in vivo, C57BL/6 mice; conditions: Example 8, 0.07% (w/w) in diet; for Reduction in numbers of lymphocytes in BAL / Reduction in numbers of monocytes/macrophages in BAL / Reduction of total BAL cell counts / Suppression of accumulation of eosinophils in BAL: compared to control diet
Description: Eight to nine week old male and female C57BL/6 mice (University of Auckland, New Zealand) were kept on an ovalbumin (OVA)-free normal mouse chow diet from weaning up until they were assigned to a particular diet (control or experimental diet). Each diet group (n=6) contained an equal number of male and female mice. Throughout the study period mice were kept in an air-conditioned room with controlled humidity, temperature, and a 12 h light:dark cycle.
as §1
Bronchoalveolar lavage was performed immediately after euthanasia by flushing 1 ml of PBS containing 1% heat inactivated fetal calf serum (lavage buffer) thrice through the lung and airways of mice via the cannulated trachea. The recovered BAL was pooled for each animal, centrifuged at 1,500 rpm at 4° C., and the supernatant stored at −80° C. The cell pellets were resuspended in 1 ml of lavage buffer, and total cell numbers were counted using a hemocytometer. BAL cells were centrifuged onto poly-L-lysine-coated glass slides using a cytospin, and stained with Diff-Quik stain (Dade Behring Inc. USA). Differential cellular counts were made by counting ≧300 cells under light microscopy (Nikon E200 microscope), using standard morphological criteria.

OVA challenged mice [2] = test: Mucus index score: Schiff staining of airway epithelia; type: in vivo, C57BL/6 mice; conditions: 0.07% (w/w) in diet; for Suppression (inhibition) of mucus production: Example 9, compared to control diet, significance not reached; for Mucus Index Score (Mean ± SEM): Table 7, scale 0-4
Description: as §1
(§3) Following BAL, the right lobes of lungs were immediately frozen in dry ice and stored at −80° C. for protein and Western blot analysis. The left lobes of lungs were fixed in 4% paraformaldehyde in 0.1 M PBS (pH 7.4) overnight and embedded either in optimum cutting temperature compound (OCT, Tissue Tek) and kept frozen at −80° C. until cryosectioning for immunohistochemistry, or in paraffin for routine histopathological analysis. Some were stained with a combined hematoxylin-Biebrich Scarlet solution by Luna's method for eosinophils to detect eosinophil granules (34) or with Alcian Blue-Periodic Acid Schiff for the detection of acid and neutral mucins and identification of goblet cells.
The level of Schiff staining of airway epithelia was semi-quantitatively determined to give a mucus index score as described (38), but modified in that Schiff staining was scored by microscopic viewing of airways. A minimum of 4 to 6 representative transversely or sagittally sectioned airways were graded per animal using a scale of 0 (no staining), 1 (25% or less of the airway epithelium stained), 2 (26-50% of the airway epithelium stained), 3 (51-75% of the airway epithelium stained), and 4 ([…]). Airways were analysed only when the complete circumference of the airway could be visualized, and those that opened directly into an alveolar space were not included.

OVA challenged mice [3] = test: Histopathology score of lung airway changes; type: in vivo, C57BL/6 mice; conditions: 0.07% (w/w) in diet; for Inhibition of allergen-specific remodelling and inflammation of the lung, in words: Example 10; for Histopathology score (Mean ± SEM): Table 8
Description: as §1, §3
The histopathology score was determined from inspection of alcian blue-PAS stained paraffin embedded sections of the left lung of each animal. Lung inflammation, perivascular/peribronchiolar infiltrates, airway epithelial hypertrophy, goblet-cell hyperplasia, constriction of bronchioles, mucin hypersecretion, and beneficial presence of phagocytic macrophages were graded on a scale of 0 (no change) to 4 (marked change). Each animal received an overall histopathology score based on summation of individual scores for each criteria. All slides were scored in a blinded fashion (blinded to diet treatment/group assignment), and scores were presented as the mean±SEM of 4-6 animals/group.

OVA-specific IgE = OVA-specific IgE in serum by ELISA; type: in vivo, C57BL/6 mice; conditions: Table 9; 0.07% (w/w) in diet; OVA challenged mice
Description: as §1, §2
OVA-specific IgE was measured as for OVA-specific IgG1 except serum samples were diluted 1:5, and OVA was coated on plates at 100 μg/ml (35). A biotin-conjugated rat anti-mouse IgE monoclonal antibody (diluted 1:200; Pharmingen, San Diego, Calif.) was used to detect OVA-specific IgE antibody, and was detected with avidin-HRP conjugate (diluted 1:250) followed by development with OPD.

liver = conditions: fed to mice at 0.4% w/w for 4 weeks; cited from earlier work

CCCCCC/C=C/C=C\CCCCCCCC(=O)O (single isomer, unassigned) [Synthetic c-9, t-11 CLA isomer Free fatty acid, c-9, t-11 CLA]
IgG Values, Average (allergen-specific IgG responses) (OVA-specific IgG1): 1.91
Reduction in numbers of lymphocytes in BAL (OVA challenged mice [1]): 72%
Reduction in numbers of monocytes/macrophages in BAL (OVA challenged mice [1]): 61%
Reduction of total BAL cell counts (OVA challenged mice [1]): 74%
Suppression of accumulation of eosinophils in BAL (OVA challenged mice [1]): 87%
Suppression (inhibition) of mucus production (OVA challenged mice [2]): 32%
Mucus Index Score (Mean ± SEM) (OVA challenged mice [2]): 2.04 ± 1.13
Inhibition of allergen-specific remodelling and inflammation of the lung, in words (OVA challenged mice [3]): able to significantly inhibit
Histopathology score (Mean ± SEM) (OVA challenged mice [3]): 2.02 ± 0.66
Histopathology score (Mean ± SEM) (OVA challenged mice [3]; listed as free fatty acid form of the c-9, t-11 isomer): 2.02
IgE Values, Average (allergen-specific IgE responses) (OVA-specific IgE): 0.89

t-10, c-12 CLA [t-10, c-12 CLA isomer, reference compound]
Eosinophil count compared to the control diet, in words (OVA challenged mice [1]): no significant difference
Lymphocyte count compared to the control diet, in words (OVA challenged mice [1]): no significant difference
Monocyte/macrophages count compared to the control diet, in words (OVA challenged mice [1]): no significant difference
Total BAL count compared to the control diet, in words (OVA challenged mice [1]): no significant difference
Inhibition of allergen-specific remodelling and inflammation of the lung, in words (OVA challenged mice [3]): not effective
Effect on the liver, in words (liver): dramatic enlargement of the liver with steatosis

CCCCC/C=C\C=C\CCCCCCCCC(=O)O (single isomer, unassigned) [Synthetic t-10, c-12 CLA isomer Free Fatty Acid, t-10, c-12 CLA, reference compound]
IgG Values, Average (allergen-specific IgG responses) (OVA-specific IgG1): 1.95
Suppression (inhibition) of mucus production (OVA challenged mice [2]): 7%
Mucus Index Score (Mean ± SEM) (OVA challenged mice [2]): 2.80 ± 1.35
Histopathology score (Mean ± SEM) (OVA challenged mice [3]): 3.28 ± 0.46
IgE Values, Average (allergen-specific IgE responses) (OVA-specific IgE): 1.25

c-9, t-11 CLA [Synthetic c-9, t-11 CLA isomer Triglyceride]
IgG Values, Average (allergen-specific IgG responses) (OVA-specific IgG1): 1.96
Reduction in numbers of lymphocytes in BAL (OVA challenged mice [1]): 43%
Reduction in numbers of monocytes/macrophages in BAL (OVA challenged mice [1]): 53%
Reduction of total BAL cell counts (OVA challenged mice [1]): 56%
Suppression of accumulation of eosinophils in BAL (OVA challenged mice [1]): 62%
Suppression (inhibition) of mucus production (OVA challenged mice [2]): 15%
Mucus Index Score (Mean ± SEM) (OVA challenged mice [2]): 2.58 ± 0.94
Histopathology score (Mean ± SEM) (OVA challenged mice [3]): 3.08 ± 0.69
IgE Values, Average (allergen-specific IgE responses) (OVA-specific IgE): 1.17

t-10, c-12 CLA [Synthetic t-10, c-12 CLA isomer Triglyceride, reference compound]
IgG Values, Average (allergen-specific IgG responses) (OVA-specific IgG1): 1.98
Suppression (inhibition) of mucus production (OVA challenged mice [2]): 15%
Mucus Index Score (Mean ± SEM) (OVA challenged mice [2]): 2.57 ± 1.16
Histopathology score (Mean ± SEM) (OVA challenged mice [3]): 3.20 ± 0.79
IgE Values, Average (allergen-specific IgE responses) (OVA-specific IgE): 1.29
